# Laboratory results: PubChem BioAssay (NCI)
#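 Abbreviation: GI50, concentration required for 50% inhibition of growth. TGI marks complete inhibition of growth.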
# Assays:
# Assay in all cases: inhibition of tumour cell growth, NCI panel, 384-well format
# A498 renal = tested on: A498 renal
# A549 NSCLC = tested on: A549 NSCLC
# ACHN renal = tested on: ACHN renal
# BT-549 breast = tested on: BT-549 breast
# CAKI-1 renal = tested on: CAKI-1 renal
# CCRF-CEM leukemia = tested on: CCRF-CEM leukemia
# COLO 205 colon = tested on: COLO 205 colon
# DU-145 prostate = tested on: DU-145 prostate
# EKVX NSCLC = tested on: EKVX NSCLC
# HCC-2998 colon = tested on: HCC-2998 colon
# HCT-116 colon = tested on: HCT-116 colon
# HCT-15 colon = tested on: HCT-15 colon
# HL-60(TB) leukemia = tested on: HL-60(TB) leukemia
# HOP-62 NSCLC = tested on: HOP-62 NSCLC
# HOP-92 NSCLC = tested on: HOP-92 NSCLC
# HS 578T breast = tested on: HS 578T breast
# HT29 colon = tested on: HT29 colon
# KM12 colon = tested on: KM12 colon
# LOX IMVI melanoma = tested on: LOX IMVI melanoma
# MDA-MB-231 breast = tested on: MDA-MB-231 breast
# MDA-MB-435 melanoma = tested on: MDA-MB-435 melanoma
# MOLT-4 leukemia = tested on: MOLT-4 leukemia
# NCI-H23 lung = tested on: NCI-H23 lung
# NCI-H322M lung = tested on: NCI-H322M lung
# NCI-H460 NSCLC = tested on: NCI-H460 NSCLC
# NCI-H522 lung = tested on: NCI-H522 lung
# NCI/ADR-RES ovarian = tested on: NCI/ADR-RES ovarian
# OVCAR-4 ovarian = tested on: OVCAR-4 ovarian
# OVCAR-5 ovarian = tested on: OVCAR-5 ovarian
# OVCAR-8 ovarian = tested on: OVCAR-8 ovarian
# RPMI-8226 leukemia = tested on: RPMI-8226 leukemia
# RXF 393 renal = tested on: RXF 393 renal
# SF-268 CNS = tested on: SF-268 CNS
# SF-295 CNS = tested on: SF-295 CNS
# SF-539 CNS = tested on: SF-539 CNS
# SK-MEL-2 melanoma = tested on: SK-MEL-2 melanoma
# SK-MEL-28 melanoma = tested on: SK-MEL-28 melanoma
# SK-MEL-5 melanoma = tested on: SK-MEL-5 melanoma
# SK-OV-3 ovarian = tested on: SK-OV-3 ovarian
# SN12C renal = tested on: SN12C renal
# SNB-75 CNS = tested on: SNB-75 CNS
# SR leukemia = tested on: SR leukemia
# SW-620 colon = tested on: SW-620 colon
# TK-10 renal = tested on: TK-10 renal
# U251 glioblastoma = tested on: U251 glioblastoma
# UACC-62 melanoma = tested on: UACC-62 melanoma
# UO-31 renal = tested on: UO-31 renal
structure (smiles),measurement,setting,value
Cc1[nH]c2ccccc2c1CCNCc1ccc(/C=C/C(=O)NO)cc1,GI50,A498 renal,16.6 nM
same,TGI,A498 renal,36 nM
same,GI50,A549 NSCLC,15.6 nM
same,TGI,A549 NSCLC,42.2 nM
same,GI50,ACHN renal,20.3 nM
same,TGI,ACHN renal,53.8 nM
same,GI50,BT-549 breast,43.4 nM
same,TGI,BT-549 breast,123 nM
same,GI50,CAKI-1 renal,13.1 nM
same,TGI,CAKI-1 renal,28.6 nM
same,GI50,CCRF-CEM leukemia,< 10 nM
same,TGI,CCRF-CEM leukemia,< 10 nM
same,GI50,COLO 205 colon,12.3 nM
same,TGI,COLO 205 colon,22.7 nM
same,GI50,DU-145 prostate,< 10 nM
same,TGI,DU-145 prostate,17.9 nM
same,GI50,EKVX NSCLC,42.7 nM
same,TGI,EKVX NSCLC,398 nM
same,GI50,HCC-2998 colon,15.1 nM
same,TGI,HCC-2998 colon,33.7 nM
same,GI50,HCT-116 colon,< 10 nM
same,TGI,HCT-116 colon,17.9 nM
same,GI50,HCT-15 colon,51.5 nM
same,TGI,HCT-15 colon,257 nM
same,GI50,HL-60(TB) leukemia,< 10 nM
same,TGI,HL-60(TB) leukemia,< 10 nM
same,GI50,HOP-62 NSCLC,13.1 nM
same,TGI,HOP-62 NSCLC,64.4 nM
same,GI50,HOP-92 NSCLC,13.3 nM
same,TGI,HOP-92 NSCLC,32.5 nM
same,GI50,HS 578T breast,11.5 nM
same,TGI,HS 578T breast,24.3 nM
same,GI50,HT29 colon,12.5 nM
same,TGI,HT29 colon,28.5 nM
same,GI50,KM12 colon,23.1 nM
same,TGI,KM12 colon,94.8 nM
same,GI50,LOX IMVI melanoma,13.1 nM
same,TGI,LOX IMVI melanoma,26.2 nM
same,GI50,MDA-MB-231 breast,12.1 nM
same,TGI,MDA-MB-231 breast,30.5 nM
same,GI50,MDA-MB-435 melanoma,18.1 nM
same,TGI,MDA-MB-435 melanoma,43.4 nM
same,GI50,MOLT-4 leukemia,< 10 nM
same,TGI,MOLT-4 leukemia,< 10 nM
same,GI50,NCI-H23 lung,13.9 nM
same,TGI,NCI-H23 lung,41.1 nM
same,GI50,NCI-H322M lung,13.9 nM
same,TGI,NCI-H322M lung,53.8 nM
same,GI50,NCI-H460 NSCLC,12.5 nM
same,TGI,NCI-H460 NSCLC,51.1 nM
same,GI50,NCI-H522 lung,< 10 nM
same,TGI,NCI-H522 lung,18.5 nM
same,GI50,NCI/ADR-RES ovarian,39 nM
same,TGI,NCI/ADR-RES ovarian,181 nM
same,GI50,OVCAR-4 ovarian,27.5 nM
same,TGI,OVCAR-4 ovarian,60.9 nM
same,GI50,OVCAR-5 ovarian,10.1 nM
same,TGI,OVCAR-5 ovarian,33.7 nM
same,GI50,OVCAR-8 ovarian,< 10 nM
same,TGI,OVCAR-8 ovarian,28.6 nM
same,GI50,RPMI-8226 leukemia,< 10 nM
same,TGI,RPMI-8226 leukemia,< 10 nM
same,GI50,RXF 393 renal,< 11.7 nM
same,TGI,RXF 393 renal,18.6 nM
same,GI50,SF-268 CNS,15.2 nM
same,TGI,SF-268 CNS,39.1 nM
same,GI50,SF-295 CNS,18.5 nM
same,TGI,SF-295 CNS,41.3 nM
same,GI50,SF-539 CNS,18.6 nM
same,TGI,SF-539 CNS,86 nM
same,GI50,SK-MEL-2 melanoma,< 10 nM
same,TGI,SK-MEL-2 melanoma,< 10 nM
same,GI50,SK-MEL-28 melanoma,15.3 nM
same,TGI,SK-MEL-28 melanoma,38 nM
same,GI50,SK-MEL-5 melanoma,< 10 nM
same,TGI,SK-MEL-5 melanoma,14 nM
same,GI50,SK-OV-3 ovarian,15.4 nM
same,TGI,SK-OV-3 ovarian,33.3 nM
same,GI50,SN12C renal,18.6 nM
same,TGI,SN12C renal,41.1 nM
same,GI50,SNB-75 CNS,< 12.4 nM
same,TGI,SNB-75 CNS,45.9 nM
same,GI50,SR leukemia,< 10 nM
same,TGI,SR leukemia,< 10 nM
same,GI50,SW-620 colon,12.3 nM
same,TGI,SW-620 colon,25.5 nM
same,GI50,TK-10 renal,17.3 nM
same,TGI,TK-10 renal,55.2 nM
same,GI50,U251 glioblastoma,12.2 nM
same,TGI,U251 glioblastoma,26.8 nM
same,GI50,UACC-62 melanoma,< 10 nM
same,TGI,UACC-62 melanoma,16.1 nM
same,GI50,UO-31 renal,31.8 nM
same,TGI,UO-31 renal,128 nM
COCCNc1cc(NC(=O)N2CCCc3cc(CN4CCN(C)CC4=O)c(C=O)nc32)ncc1C#N,GI50,A498 renal,> 100000 nM
same,TGI,A498 renal,> 100000 nM
same,GI50,A549 NSCLC,> 100000 nM
same,TGI,A549 NSCLC,> 100000 nM
same,GI50,ACHN renal,> 100000 nM
same,TGI,ACHN renal,> 100000 nM
same,GI50,BT-549 breast,> 100000 nM
same,TGI,BT-549 breast,> 100000 nM
same,GI50,CAKI-1 renal,> 100000 nM
same,TGI,CAKI-1 renal,> 100000 nM
same,GI50,CCRF-CEM leukemia,27000 nM
same,TGI,CCRF-CEM leukemia,> 100000 nM
same,GI50,COLO 205 colon,> 100000 nM
same,TGI,COLO 205 colon,> 100000 nM
same,GI50,DU-145 prostate,> 100000 nM
same,TGI,DU-145 prostate,> 100000 nM
same,GI50,EKVX NSCLC,> 100000 nM
same,TGI,EKVX NSCLC,> 100000 nM
same,GI50,HCC-2998 colon,> 100000 nM
same,TGI,HCC-2998 colon,> 100000 nM
same,GI50,HCT-116 colon,> 100000 nM
same,TGI,HCT-116 colon,> 100000 nM
same,GI50,HCT-15 colon,> 100000 nM
same,TGI,HCT-15 colon,> 100000 nM
same,GI50,HL-60(TB) leukemia,99600 nM
same,TGI,HL-60(TB) leukemia,> 100000 nM
same,GI50,HOP-62 NSCLC,> 100000 nM
same,TGI,HOP-62 NSCLC,> 100000 nM
same,TGI,HOP-92 NSCLC,> 100000 nM
same,GI50,HS 578T breast,> 100000 nM
same,TGI,HS 578T breast,> 100000 nM
same,GI50,HT29 colon,> 100000 nM
same,TGI,HT29 colon,> 100000 nM
same,GI50,KM12 colon,> 100000 nM
same,TGI,KM12 colon,> 100000 nM
same,GI50,LOX IMVI melanoma,> 100000 nM
same,TGI,LOX IMVI melanoma,> 100000 nM
same,GI50,MDA-MB-231 breast,> 100000 nM
same,TGI,MDA-MB-231 breast,> 100000 nM
same,GI50,MDA-MB-435 melanoma,> 100000 nM
same,TGI,MDA-MB-435 melanoma,> 100000 nM
same,GI50,MOLT-4 leukemia,6800 nM
same,TGI,MOLT-4 leukemia,> 100000 nM
same,GI50,NCI-H23 lung,> 100000 nM
same,TGI,NCI-H23 lung,> 100000 nM
same,GI50,NCI-H322M lung,> 100000 nM
same,TGI,NCI-H322M lung,> 100000 nM
same,GI50,NCI-H460 NSCLC,> 100000 nM
same,TGI,NCI-H460 NSCLC,> 100000 nM
same,GI50,NCI-H522 lung,> 42200 nM
same,TGI,NCI-H522 lung,> 100000 nM
same,GI50,NCI/ADR-RES ovarian,> 100000 nM
same,TGI,NCI/ADR-RES ovarian,> 100000 nM
same,GI50,OVCAR-4 ovarian,> 100000 nM
same,TGI,OVCAR-4 ovarian,> 100000 nM
same,GI50,OVCAR-5 ovarian,> 100000 nM
same,TGI,OVCAR-5 ovarian,> 100000 nM
same,GI50,OVCAR-8 ovarian,> 100000 nM
same,TGI,OVCAR-8 ovarian,> 100000 nM
same,GI50,RPMI-8226 leukemia,> 21100 nM
same,TGI,RPMI-8226 leukemia,> 43900 nM
same,GI50,RXF 393 renal,> 100000 nM
same,TGI,RXF 393 renal,> 100000 nM
same,GI50,SF-268 CNS,> 100000 nM
same,TGI,SF-268 CNS,> 100000 nM
same,GI50,SF-295 CNS,> 100000 nM
same,TGI,SF-295 CNS,> 100000 nM
same,GI50,SF-539 CNS,> 100000 nM
same,TGI,SF-539 CNS,> 100000 nM
same,GI50,SK-MEL-2 melanoma,> 100000 nM
same,TGI,SK-MEL-2 melanoma,> 100000 nM
same,GI50,SK-MEL-28 melanoma,> 100000 nM
same,TGI,SK-MEL-28 melanoma,> 100000 nM
same,GI50,SK-MEL-5 melanoma,> 100000 nM
same,TGI,SK-MEL-5 melanoma,> 100000 nM
same,GI50,SK-OV-3 ovarian,> 100000 nM
same,TGI,SK-OV-3 ovarian,> 100000 nM
same,GI50,SN12C renal,> 100000 nM
same,TGI,SN12C renal,> 100000 nM
same,GI50,SNB-75 CNS,> 100000 nM
same,TGI,SNB-75 CNS,> 100000 nM
same,GI50,SR leukemia,3310 nM
same,TGI,SR leukemia,10800 nM
same,GI50,SW-620 colon,> 100000 nM
same,TGI,SW-620 colon,> 100000 nM
same,GI50,TK-10 renal,> 84900 nM
same,TGI,TK-10 renal,> 100000 nM
same,GI50,U251 glioblastoma,> 100000 nM
same,TGI,U251 glioblastoma,> 100000 nM
same,GI50,UACC-62 melanoma,> 100000 nM
same,TGI,UACC-62 melanoma,> 100000 nM
same,GI50,UO-31 renal,> 100000 nM
same,TGI,UO-31 renal,> 100000 nM
